Experimental data: patent EP0108147B1, “Use of a protoberberine alkaloid and composition containing same” (MAROKO, Peter R., priority 1982, dated 1983)

Legend:
Type in all cases: in vivo
[1] = test system: closed-chest barbiturate anesthetized dogs; test: Endotoxic (LPS) shock in dogs
Description: Nineteen closed-chest barbiturate anesthetized with artificial respiration dogs were studied. All measurements were done by the technique described before LPS.
At this time, i.e., two hours and fifteen minutes after administration of LPS, 1000 ml of 5% of dextrose in water was administered to all dogs during the next forty-five minutes.
Urinary output during the second hour of shock (before berberine or placebo treatments) and the third hour of shock (when the dogs were treated with either berberine of placebo) were compared in each dog. This analysis is of crucial importance since it would indicate the restoration of effective organ perfusion which in the case of the kidneys results in urinary output.

[2] = test system: Sprague-Daley rats; test: Rat model of acute coronary artery occlusion, mortality; settings: for antiarrhythmic control after coronary artery occlusion: rat, in vivo
From the text: Another series of experiments were done using the rat model of acute coronary artery occlusion. In these experiments the effect of berberine was examined on mortality. Thus, Sprague-Daley rats (Charles River) weighing over 300 grams were anesthetized with ether, their chest opened in the 5th left intercostal space their heart everted and the left main coronary occluded with a surgical stitch. Thereafter the heart was repositioned and the thorax closed with a purse string suture, as described in more detail by us previously (Maclean, Fishbein, M. C. Braunwald, E. and Maroco, P. R., Long Term Presentation of Ischemic Myocardium After Experimental Coronary Artery Occlusion. J. Clin. Inv. 61, pages 541-551, 1978 and also in Maclean, D., Fishbein, M. D., Maroko, P. R. and Braunwald, Hyaluronidase-Induced Reductions In Myocardial Infarct Size. Science, 194, pages 199-200 (1976)). The mortality in rats weighing over […] was greater than in smaller rats.
After finishing the surgical procedure, the rats were randomized into controls (injection of 5% dextrose in water) and berberine treated (1 mg/Kg intravenously as a bolus).

[3] = test system: patients with heart failure; test: Intravenous berberine in patients with heart failure, catheterization laboratory
Description: Berberine HCI was used in patients with heart failure. […] The observations were done in a catheterization laboratory. […] Heart rate decreased in two patients and increased in one. On the average it decreased from 82 to 76 beats/min after 0.02 mg/kg/min and to 79 after 0.2 mg/kg/min. […] It is very impressive that in one patient it fell from 21 to 11 and then to 9 mmHg. Aortic systolic pressure fell from 115 mmHg to 104 and then to 108 mmHg. Aortic diastolic pressure fell from 78 to 68 and then to 67 mmHg. Aortic mean pressure fell from 93 to 80 to 84 mmHg. This is a mild fall in mean aortic pressure. […] These are very marked increases in cardiac output and cardiac index. […] These increases are again very remarkable. […] Thus, the 5 last […] indicated the profound aemelioration in ventricular performance. […] Contractility was evaluated by the indices LV-V max (left ventricular maximal shortening velocity of the contractile element) and LV-VPM (left ventricular peak measured shortening velocoty of the contracile elements).

[4] = test system: dog; test: Protocol M simile: high or repetitive infusions in single dogs
Description: It is noted that the dP/dt increased by 350% after the eighth dose and dF/dt by 450%.
In one dog using protocol M simile, 240 mg/Kg of berberine HCI was administered and dP/dt increased by 75%, aortic flow by 67%, heart rate fell from 150 to 114 beats/min., diastolic aortic pressure fell from 92 to 67 mmHg, and left atrial pressure fell from 8.5 to 7.5 mmHg.
When this type of experiment was repeated with tetrahydropalmatine, a first dose of 3.5 mg/Kg was given without maintaining the pressure constant and arterial pressure fell from 142/115 to 118/90 mmHg. When the second infusion was given with constant pressure, dP/dt increased by 17%.

[5] = one dog, after the eighth dose, 0.7 mg/kg/min repeated up to 56 mg/Kg

SMILES: COc1ccc2cc3[n+](cc2c1OC)CCc1cc2c(cc1-3)OCO2 [berberine]
- systemic systolic arterial pressure ([1]; after 1000 ml of 5% dextrose in water, controls 107±5, before shock 136±10): 127±6 mmHg
- dP/dt higher than before shock ([1]; after dextrose): approximately 50%
- peak left ventricular dP/dt ([1]; after dextrose, before shock 2565±166): 3740 ± 305 mmHg/s
- cardiac arrhythmias or conduction defect ([1]; dog, in vivo): No cardiac arrhythmias or conduction defect was observed
- increase of urinary output from the second (pre-treatment) to the third (treatment) hour ([1]; first statement, control -51.7±32.9): 30.5 ± 32.9 mL/h
- increase of urinary output from the second (pre-treatment) to the third (treatment) hour ([1]; second statement): 30.5±14.3 mi
- minimal dose that results in an elevation of systemic systolic arterial pressure by at least 5 mmHg ([1]; two hours after LPS 5 mg): 0.053 ± 0.008 mg/kg/min
- peak left ventricular dP/dt ([1]; within fifteen minutes of treatment, control 1050±145): 2062±204 mmHg/s
- pulse pressure (systolic minus diastolic pressures) ([1]; within fifteen minutes of treatment, from 24±2): 32±2 mmHg
- systolic pressure ([1]; within fifteen minutes of treatment, placebo 50±6): 66±4 mmHg
- rats that died within the first fifteen minutes ([2]; 1 mg/Kg intravenously as a bolus, controls seventeen out of twenty-four): six out of twenty- two
- side effects ([3]; 0.002 mg/kg/min 30 minutes then 0.02 mg/kg/min 30 minutes, 3 patients): without untoward side effects
- side effects ([3]; 0.2 mg/kg/min, one patient): without untoward side effects
- side effects ([3]; 3 patients with cardiomyopathy, 0.02 then 0.2 mg/kg/min, 15 minutes each): None of the patients had side effects
- cardiac index ([3]; after 0.02 mg/kg/min, from 2.9): 3.7 fiters/min/m^2
- cardiac output ([3]; after 0.02 mg/kg/min, from 5.1): 6.6 L/min
- Left ventricular end diastolic pressure ([3]; after 0.02 mg/kg/min, from 22): 16 mmHg
- ejection fraction ([3]; after 0.02 mg/kg/min, from 32): 36%
- stroke index ([3]; after 0.02 mg/kg/min, from 36): 50 ml/m^2
- Stroke volume ([3]; after 0.02 mg/kg/min, from 62): 89 mL
- Aortic diastolic pressure ([3]; after 0.02 mg/kg/min, from 78): 68 mmHg
- Heart rate, average ([3]; after 0.02 mg/kg/min, from 82): 76 beats/min
- Aortic mean pressure ([3]; after 0.02 mg/kg/min, from 93): 80 mmHg
- Aortic systolic pressure ([3]; after 0.02 mg/kg/min, from 115): 104 mmHg
- Left ventricular systolic pressure ([3]; after 0.02 mg/kg/min, from 116): 106 mmHg
- Calculated systemic peripheral resistance ([3]; after 0.02 mg/kg/min, from 1339): 883 10^-5N·S·cm^-5
- Aortic diastolic pressure ([3]; after 0.2 mg/kg/min): 67 mmHg
- Aortic mean pressure ([3]; after 0.2 mg/kg/min): 84 mmHg
- Aortic systolic pressure ([3]; after 0.2 mg/kg/min): 108 mmHg
- Calculated systemic peripheral resistance ([3]; after 0.2 mg/kg/min): 794 10^-5N·S·cm^-5
- Heart rate, average ([3]; after 0.2 mg/kg/min): 79 beats/min
- Left ventricular end diastolic pressure ([3]; after 0.2 mg/kg/min): 15 mmHg
- Left ventricular systolic pressure ([3]; after 0.2 mg/kg/min): 110 mmHg
- Stroke volume ([3]; after 0.2 mg/kg/min): 102 mL
- cardiac index ([3]; after 0.2 mg/kg/min): 4.2 fiters/min/m^2
- cardiac output ([3]; after 0.2 mg/kg/min): 7.4 L/min
- ejection fraction ([3]; after 0.2 mg/kg/min): 40%
- stroke index ([3]; after 0.2 mg/kg/min): 58 ml/m^2
- LV-VPM (left ventricular peak measured shortening velocoty of the contracile elements) ([3]; after berberine, from 0.7): 0.9
- LV-V max (left ventricular maximal shortening velocity of the contractile element) ([3]; after berberine, from 0.9): 1.1
- Left ventricular end diastolic pressure ([3]; one patient, after 0.02 mg/kg/min, from 21): 11 mmHg
- Left ventricular end diastolic pressure ([3]; one patient, after 0.2 mg/kg/min): 9 mmHg
- arrhythmias ([4]; one dog, 240 mg/Kg): No arrhythmias were noted
- increase of aortic flow ([4]; one dog, 240 mg/Kg): 67%
- increase of dP/dt ([4]; one dog, 240 mg/Kg): 75%
- left atrial pressure ([4]; one dog, 240 mg/Kg, from 8.5): 7.5 mmHg
- diastolic aortic pressure ([4]; one dog, 240 mg/Kg, from 92): 67 mmHg
- heart rate ([4]; one dog, 240 mg/Kg, from 150): 114 beats/min
- increase of dF/dt [4, 5]: 450%
- increase of dP/dt [4, 5]: 350%
- arrhythmias ([4]; one dog, up to 56 mg/Kg): No arrhythmias were observed

SMILES: COc1ccc2cc3[n+](cc2c1O)CCc1cc2c(cc1-3)OCO2 [berberrubine]
- control of endotoxic shock caused by LPS ([1]; dog, in vivo): comparable results
- antiarrhythmic control after coronary artery occlusion [2]: like antiarrhythmic control is observable

SMILES: COc1cc2c(cc1O)C[C@H]1c3cc(O)c(OC)cc3CCN1C2 [coreximine]
- control of endotoxic shock caused by LPS ([1]; dog, in vivo): comparable results
- antiarrhythmic control after coronary artery occlusion [2]: like antiarrhythmic control is observable
- result when the experiments are repeated ([4]; dog, in vivo): comparable results are obtained
